Laboratory results: patent US20260256792A1, “TREATMENT OF CHRONIC SPONTANEOUS URTICARIA BY ADMINISTERING (R)-2-[3-[4-AMINO-3-(2-FLUORO-4-PHENOXY-PHENYL)PYRAZOLO[3,4-D]PYRIMIDIN-1-YL]PIPERIDINE-1-CARBONYL]-4-METHYL-4-[4-(OXETAN-3-YL)PIPERAZIN-1-YL]PENT-2-ENENITRILE” (priority 2023, published 2026)

System: moderate-to-severe chronic spontaneous urticaria (CSU)
Test: Phase 2 CSU study: urticaria control test (UCT)
Assay type: in vivo, human
Parameters: key to UCT, Mean / UCT, Median / UCT change from baseline, Mean / UCT change from baseline, Median: UCT total = sum of 4 item scores; low = low disease control
From the text: The study comprises a 12 week, randomized, double-blind, placebo-controlled, multi-center, dose-ranging efficacy and safety phase, followed by a 40 week open label extension (OLE) phase (see FIG. 1). The study consists of three phases and an optional OLE phase. […] To this end, the UCT was proposed as a tertiary endpoint in this study. […] The dermatology life quality index (DLQI) was proposed as a tertiary endpoint in this study. […] Low scores indicate high disease activity and low disease control. The UCT total score is calculated by adding all 4 individual item scores. […] The recall period is the previous 4 weeks. Patients were to complete the UCT questionnaire during their site visit.

[1] = 400 mg BID, End of study, omalizumab-naïve population
[2] = 400 mg BID, End of study, prior omalizumab use incl. incomplete responders
[3] = 400 mg BID, Week 4, ITT population
[4] = 400 mg BID, Week 4, omalizumab-naïve population
[5] = 400 mg BID, Week 4, prior omalizumab use incl. incomplete responders
[6] = 400 mg BID, Week 8, ITT population
[7] = 400 mg BID, Week 8, omalizumab-naïve population
[8] = 400 mg BID, Week 8, prior omalizumab use incl. incomplete responders
[9] = 400 mg BID, Week 12, ITT population
[10] = 400 mg BID, Week 12, omalizumab-naïve population
[11] = 400 mg BID, Week 12, prior omalizumab use incl. incomplete responders
[12] = 400 mg QPM, End of study, omalizumab-naïve population
[13] = 400 mg QPM, End of study, prior omalizumab use incl. incomplete responders
[14] = 400 mg QPM, Week 4, ITT population
[15] = 400 mg QPM, Week 4, omalizumab-naïve population
[16] = 400 mg QPM, Week 4, prior omalizumab use incl. incomplete responders

## CC(C)(C=C(C#N)C(=O)N1CCC[C@@H](n2nc(-c3ccc(Oc4ccccc4)cc3F)c3c(N)ncnc32)C1)N1CCN(C2COC2)CC1 [rilzabrutinib, (R)-2-[3-[4-amino-3-(2-fluoro-4-phenoxy-phenyl)pyrazolo[3,4-d]pyrimidin-1-yl]piperidine-1-carbonyl]-4-methyl-4-[4-(oxetan-3-yl)piperazin-1-yl]pent-2-enenitrile]
[1]
  UCT change from baseline, Mean: 0.00
  UCT change from baseline, Median: −2.00
  UCT percent change from baseline, Mean: −21.27%
  UCT percent change from baseline, Median: −57.14%
  UCT, Median: 3.00
[2]
  UCT change from baseline, Median: 5.50
  UCT percent change from baseline, Mean: 4.33%
  UCT percent change from baseline, Median: 4.00%
  UCT, Mean: 2.67
  UCT, Median: 3.00
[3]
  UCT % Change difference for rilzabrutinib vs. placebo LS Mean (95% CI): 96.74 (−24.75, 218.23) %
  UCT % Change from baseline LS Mean (SE): 236.29 (42.88) %
  UCT Change difference for rilzabrutinib vs. placebo LS Mean (95% CI): 0.94 (−0.87, 2.75)
  UCT Change from baseline LS Mean (SE): 4.27 (0.65)
  UCT Post-baseline Mean (SD): 8.56 (4.95)
[4]
  UCT % Change difference for rilzabrutinib vs. placebo LS Mean (95% CI): 120.19 (−1.20, 241.59) %
  UCT % Change from baseline LS Mean (SE): 263.00 (44.80) %
  UCT Change difference for rilzabrutinib vs. placebo LS Mean (95% CI): 1.27 (−0.56, 3.11)
  UCT Change from baseline LS Mean (SE): 4.51 (0.66)
  UCT Post-baseline Mean (SD): 8.85 (4.53)
  UCT change from baseline, Mean: 4.21
  UCT change from baseline, Median: 4.00
  UCT percent change from baseline, Mean: 220.19%
  UCT percent change from baseline, Median: 75.00%
  UCT, Mean: 8.85
  UCT, Median: 9.00
[5]
  UCT change from baseline, Mean: 4.33
  UCT change from baseline, Median: 4.00
  UCT percent change from baseline, Mean: 151.39%
  UCT percent change from baseline, Median: 137.50%
  UCT, Median: 5.50
[6]
  UCT % Change difference for rilzabrutinib vs. placebo LS Mean (95% CI): 139.58 (18.06, 261.09) %
  UCT % Change from baseline LS Mean (SE): 304.12 (43.11) %
  UCT Change difference for rilzabrutinib vs. placebo LS Mean (95% CI): 1.01 (−0.90, 2.92)
  UCT Change from baseline LS Mean (SE): 5.38 (0.68)
  UCT Post-baseline Mean (SD): 10.00 (4.71)
[7]
  UCT % Change difference for rilzabrutinib vs. placebo LS Mean (95% CI): 158.55 (28.05, 289.04) %
  UCT % Change from baseline LS Mean (SE): 328.12 (46.96) %
  UCT Change difference for rilzabrutinib vs. placebo LS Mean (95% CI): 1.14 (−0.74, 3.02)
  UCT Change from baseline LS Mean (SE): 5.61 (0.69)
  UCT Post-baseline Mean (SD): 10.12 (4.20)
  UCT change from baseline, Mean: 5.70
  UCT change from baseline, Median: 5.00
  UCT percent change from baseline, Mean: 290.62%
  UCT percent change from baseline, Median: 114.29%
[8]
  UCT change from baseline, Median: 11.00
  UCT percent change from baseline, Mean: 248.33%
  UCT percent change from baseline, Median: 275.00%
  UCT, Mean: 9.20
  UCT, Median: 14.00
[9]
  UCT % Change difference for rilzabrutinib vs. placebo LS Mean (95% CI): 109.34 (−24.34, 243.02) %
  UCT % Change from baseline LS Mean (SE): 309.12 (47.68) %
  UCT Change difference for rilzabrutinib vs. placebo LS Mean (95% CI): 0.71 (−1.27, 2.68)
  UCT Change from baseline LS Mean (SE): 5.44 (0.71)
  UCT Post-baseline Mean (SD): 9.92 (4.69)
[10]
  UCT % Change difference for rilzabrutinib vs. placebo LS Mean (95% CI): 146.79 (5.56, 288.02) %
  UCT % Change from baseline LS Mean (SE): 344.03 (53.11) %
  UCT Change difference for rilzabrutinib vs. placebo LS Mean (95% CI): 0.80 (−1.21, 2.81)
  UCT Change from baseline LS Mean (SE): 5.52 (0.74)
  UCT Post-baseline Mean (SD): 10.03 (4.29)
  UCT change from baseline, Mean: 5.65
  UCT change from baseline, Median: 4.00
  UCT percent change from baseline, Mean: 301.53%
  UCT percent change from baseline, Median: 130.95%
[11]
  UCT change from baseline, Median: 8.00
  UCT percent change from baseline, Mean: 246.67%
  UCT percent change from baseline, Median: 266.67%
  UCT, Mean: 9.20
[12]
  UCT change from baseline, Mean: 8.50
  UCT change from baseline, Median: 8.50
  UCT percent change from baseline, Mean: 283.33%
  UCT percent change from baseline, Median: 283.33%
[13]
  UCT change from baseline, Mean: 8.00
  UCT change from baseline, Median: 8.00
  UCT percent change from baseline, Mean: 3.00%
  UCT percent change from baseline, Median: 3.00%
  UCT, Mean: 5.00
  UCT, Median: 5.00
[14]
  UCT % Change difference for rilzabrutinib vs. placebo LS Mean (95% CI): −44.03 (−169.40, 81.34) %
  UCT % Change from baseline LS Mean (SE): 95.52 (42.85) %
  UCT Change difference for rilzabrutinib vs. placebo LS Mean (95% CI): −0.89 (−2.79, 1.00)
  UCT Change from baseline LS Mean (SE): 2.44 (0.68)
  UCT Post-baseline Mean (SD): 6.40 (3.11)
[15]
  UCT % Change difference for rilzabrutinib vs. placebo LS Mean (95% CI): −48.50 (−174.55, 77.55) %
  UCT % Change from baseline LS Mean (SE): 94.30 (43.68) %
  UCT Change difference for rilzabrutinib vs. placebo LS Mean (95% CI): −0.88 (−2.74, 0.99)
  UCT Change from baseline LS Mean (SE): 2.36 (0.66)
  UCT Post-baseline Mean (SD): 6.35 (3.14)
  UCT change from baseline, Mean: 2.27
  UCT change from baseline, Median: 2.00
  UCT percent change from baseline, Mean: 102.47%
  UCT percent change from baseline, Median: 45.00%
  UCT, Median: 6.00
[16]
  UCT change from baseline, Mean: 3.00
  UCT change from baseline, Median: 3.00
  UCT percent change from baseline, Mean: 60.00%
  UCT percent change from baseline, Median: 60.00%
  UCT, Mean: 8.00
  UCT, Median: 8.00
